Test results from patent publication US10392389B2, “Heterocyclic compounds for the inhibition of PASK” (BioEnergenix, LLC, priority 2012, dated 2019).

The molecules below were run against T1, PASK (UniProt #Q96RG2; human recombinant N-terminal GST tagged construct, residues 879-1323) (Homo sapiens, UniProt Q96RG2) (assay: PASK ATP Radiochemical Assay). Conditions: 33P-ATP, Myelin Basic Protein substrate, read-out: IC50 Kinase Domain.
T1 construct: N-terminal GST tagged construct, residues 879-1323; GST (N); host or cells: insect cells
Type: biochemical
Experimental: (§1) Biochemical Assay for hPASK Activity
PASK ATP Radiochemical Assay
Purified PASK (UniProt #Q96RG2; human recombinant N-terminal GST tagged construct, residues 879-1323) from insect cells (final concentration 5 nM) is added to freshly prepared Base Reaction Buffer containing 20 mM HEPES (pH 7.5), 10 mM MgCl2, 1 mM EGTA, 0.02% Brij35, 0.02 mg/ml BSA, 0.1 mM Na3VO4, 2 mM DTT, 1% DMSO and Myelin Basic Protein (20 μM final). Test compounds in DMSO are then added and the mixture, followed by delivery of ^33P-ATP (specific activity 0.01 μCi/μl final) to initiate the reaction. The kinase reaction is incubated for 120 min at room temperature. The entire reaction mixture is washed through onto a P81 Phosphocellulose paper and washed three times for 10 minutes in 75 mM phosphoric acid and once in methanol prior to drying and scintillation counting.

T1 sequence (Q96RG2 879-1323, stated change not applied): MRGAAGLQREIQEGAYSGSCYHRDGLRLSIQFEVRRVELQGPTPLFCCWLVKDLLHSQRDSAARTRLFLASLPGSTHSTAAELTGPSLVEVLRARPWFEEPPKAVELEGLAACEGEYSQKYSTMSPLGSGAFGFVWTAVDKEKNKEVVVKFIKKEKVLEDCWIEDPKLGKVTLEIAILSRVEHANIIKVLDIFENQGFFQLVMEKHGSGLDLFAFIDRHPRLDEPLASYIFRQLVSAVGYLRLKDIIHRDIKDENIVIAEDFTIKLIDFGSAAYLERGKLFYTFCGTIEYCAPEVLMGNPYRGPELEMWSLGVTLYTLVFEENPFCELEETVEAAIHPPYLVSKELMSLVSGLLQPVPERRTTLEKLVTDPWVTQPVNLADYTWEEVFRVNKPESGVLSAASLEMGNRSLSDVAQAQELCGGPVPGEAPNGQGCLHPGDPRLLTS

Row | Compound | IC50
1 | O=c1cc(-c2ccc3c(c2)OCO3)[nH]c2c(-c3ncco3)cnn12 [Example 1, 5-(2H-1,3-benzodioxol-5-yl)-3-(1,3-oxazol-2-yl)-4H,7H-pyrazolo[1,5-a]pyrimidin-7-one] | ≤ 10 µM

Each molecule was assayed against T2, PASK (Invitrogen) (Homo sapiens, UniProt Q96RG2) (assay: PAS Kinase FRET Assay). Conditions: PAS kinase TR-FRET assay (665 nm/615 nm); read-out: IC50 Kinase Domain.
T2 construct: IC50 Kinase Domain; purchased Invitrogen
Type: biochemical
Excerpt: as §1
The aim of the FRET assay is to determine the inhibition potential of test compounds on targeted kinase. This assay platform provides a homogenous screening method for measuring kinase activity by quantitating the amount of phospho-substrate in solution following a kinase reaction.
In the presence of kinase and ATP, the Ulight-peptide is phosphorylated and captured by an anti-phospho-substrate antibody, which brings the Eu chelate donor and Ulight acceptor dyes into close proximity. Upon excitation at 340 nm, the Eu chelate transfers its energy to the Ulight dye, resulting in a fluorescent light emission at 665 nm.
Titration of kinase at 1 mM ATP was achieved via the following protocol. After making serial three-fold dilutions of PASK (Invitrogen) in reaction buffer across the plate; 5 μl of kinase dilution and 5 μl substrate/ATP mix were added to the wells of the white Optiplate-384 (PerkinElmer). The contents of the plate were and incubated at RT for 1 h. The reaction was stopped by adding 5 μl of stop solution to each test well followed by mixing and incubation at RT for 10 minutes. 5 μl of detection mix (detection antibody diluted in detection buffer) was added; the contents of the plate were mixed and then incubated in the dark for 1 hour at RT. The signal was recorded at TR-FRET mode (665 nm/615 nm). The results were graphed to calculate the EC50.
Titration of ATP at the EC50 concentration of kinase to determine ATP Km,app. was performed using the following method. After making serial dilutions of ATP (Invitrogen), 5 μl of ATP dilution and 5 μl substrate/kinase mix were added to the wells of the white Optiplate-384 (PerkinElmer). The contents of the plate were and incubated at RT for 1 h. The reaction was stopped by adding 5 μl of stop solution to each test well followed by mixing and incubation at RT for 10 minutes. 5 μl of detection mix (detection antibody diluted in detection buffer) was added; the contents of the plate were mixed and then incubated in the dark for 1 hour at RT. The signal was recorded at TR-FRET mode (665 nm/615 nm). The results were graphed to calculate the EC50 as the ATP Km,app.
Compound screening was done via the following method. 10 mM stock solution of test compound in DMSO was prepared by dissolving test compound in DMSO at RT for 1 hour, and then sonicating at 100% output for 8 minutes. If compound is not soluble under this condition, it was diluted to 3 mM. Kinase reaction buffer was prepared containing 10 mM MgCl2, 50 mM HEPES, 1 mM EGTA, 0.01% TWEEN-20, 2 mM DTT. Serial dilutions of the test compounds were prepared at 4× final assay concentrations using Freedom EVO200® dispensing system as follows: 12×10^−5 M, 4×10^−5 M, 1.33×10^−5 M, 4.44×10^−6 M, 1.48×10^−6 M, 4.92×10^−7 M, 1.65×10^−7 M, […], 1.82×10^−8M, 6.09×10^−9, 2.03×10^−9 M. Test compounds (2.5 μl at 4× the final assay concentration) was added to wells using Freedom EVO200® dispensing system. As a positive control, 2.5 μl of positive compound was added to assay wells, and 2.5 μl of DMSO to assay wells as vehicle control. Kinase solution was prepared in reaction buffer at 2× final assay concentration. Kinase solution (5 μl) was added to each well of the assay plate. The substrate and ATP solution was prepared in kinase reaction buffer at 4× final assay concentration. The kinase reaction was started by adding 2.5 μl of substrate+ATP mix solution to each well of the assay plate. The plate is mixed on a plate shaker; then covered and allowed to react for 2 hours in the dark at 25° C. without shaking. The reaction was stopped by adding 5 μl of stop solution to each test well followed by mixing and incubation at RT for 10 minutes in the dark. 5 μl of detection mix (detection antibody diluted in detection buffer) was added; the contents of the plate were mixed and then incubated in the dark for 1 hour at RT. The signal was recorded at TR-FRET mode (665 nm/615 nm).

T2 sequence (Q96RG2 999-1251 limits assumed): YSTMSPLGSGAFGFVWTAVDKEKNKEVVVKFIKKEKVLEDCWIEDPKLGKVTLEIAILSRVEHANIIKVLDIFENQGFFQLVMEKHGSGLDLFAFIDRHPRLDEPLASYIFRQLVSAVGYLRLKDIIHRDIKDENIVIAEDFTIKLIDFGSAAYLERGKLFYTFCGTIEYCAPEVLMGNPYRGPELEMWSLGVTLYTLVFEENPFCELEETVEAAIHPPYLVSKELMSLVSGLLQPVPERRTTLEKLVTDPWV

Row | Compound | IC50
2 | CCc1noc2cc(-c3cc(=O)n4ncc(-c5ncc(C)o5)c4[nH]3)ccc12 [Example 121, 5-(3-ethylbenzo[d]isoxazol-6-yl)-3-(5-methyloxazol-2-yl)pyrazolo[1,5-a]pyrimidin-7(4H)-one] | ≤ 10 µM
3 | O=c1cc(-c2ccc3c(c2)OCO3)[nH]c2c(-c3ncco3)cnn12 [Example 1, 5-(2H-1,3-benzodioxol-5-yl)-3-(1,3-oxazol-2-yl)-4H,7H-pyrazolo[1,5-a]pyrimidin-7-one] | ≤ 10 µM
4 | Cc1noc(-c2c(C)nn3c(=O)cc(-c4ccc(Cl)cc4)[nH]c23)n1 [Example 8, 5-(4-chlorophenyl)-2-methyl-3-(3-methyl-1,2,4-oxadiazol-5-yl)-4H,7H-pyrazolo[1,5-a]pyrimidin-7-one] | ≤ 10 µM
5 | Cc1noc(-c2cnn3c(=O)cc(-c4ccc(Cl)c(OCC(F)(F)F)c4)[nH]c23)n1 [Example 92, 5-[4-chloro-3-(2,2,2-trifluoroethoxy)phenyl]-3-(3-methyl-1,2,4-oxadiazol-5-yl)-4H,7H-pyrazolo[1,5-a]pyrimidin-7-one] | ≤ 10 µM
6 | CNC(=O)Cc1cnn2c(=O)cc(-c3ccc(Cl)c(OC)c3)[nH]c12 [Example 81, 2-(5-(4-chloro-3-methoxyphenyl)-7-oxo-4,7-dihydropyrazolo[1,5-a]pyrimidin-3-yl)-N-methylacetamide] | ≤ 10 µM
7 | COc1cc(-c2cc(=O)n3ncc(-c4cc(C)no4)c3[nH]2)ccc1Cl [Example 52, 5-(4-chloro-3-methoxyphenyl)-3-(3-methylisoxazol-5-yl)pyrazolo[1,5-a]pyrimidin-7(4H)-one] | ≤ 10 µM
8 | CCCc1nn2c(=O)cc(-c3ccc4c(cnn4CC)c3)[nH]c2c1-c1nc(C)no1 [Example 116, 5-(1-ethyl-1H-indazol-5-yl)-3-(3-methyl-1,2,4-oxadiazol-5-yl)-2-propyl-4H,7H-pyrazolo[1,5-a]pyrimidin-7-one] | ≤ 10 µM
9 | Cc1cnc(-c2cnn3c(=O)cc(-c4ccc(Cl)c(OC(F)(F)F)c4)[nH]c23)o1 [Example 38, 5-[4-chloro-3-(trifluoromethoxy)phenyl]-3-(5-methyloxazol-2-yl)-4H,7H-pyrazolo[1,5-a]pyrimidin-7-one] | ≤ 10 µM
10 | CCc1cnc(-c2cnn3c(=O)cc(-c4ccc5c(c4)OCO5)[nH]c23)o1 [Example 14, 5-(2H-1,3-benzodioxol-5-yl)-3-(5-ethyl-1,3-oxazol-2-yl)-4H,7H-pyrazolo[1,5-a]pyrimidin-7-one] | ≤ 10 µM
11 | CCOc1cc(-c2cc(=O)n3ncc(-c4ncc(C)o4)c3[nH]2)ccc1Cl [Example 46, 5-(4-chloro-3-ethoxyphenyl)-3-(5-methyloxazol-2-yl)pyrazolo[1,5-a]pyrimidin-7(4H)-one] | ≤ 10 µM
12 | CCOc1cc(-c2cc(=O)n3ncc(-c4ncco4)c3[nH]2)ccc1Cl [Example 34, 5-(4-chloro-3-ethoxyphenyl)-3-(oxazol-2-yl)-4H,7H-pyrazolo[1,5-a]pyrimidin-7-one] | ≤ 10 µM
13 | COc1cc(-c2cc(=O)n3ncc(-c4nc5ccccc5o4)c3[nH]2)ccc1Cl [Example 45, 3-(benzo[d]oxazol-2-yl)-5-(4-chloro-3-methoxyphenyl)pyrazolo[1,5-a]pyrimidin-7(4H)-one] | ≤ 10 µM
14 | CC(C)n1ncc2cc(-c3cc(=O)n4ncc(-c5ccnn5C)c4[nH]3)ccc21 [Example 88, 5-(1-isopropyl-1H-indazol-5-yl)-3-(1-methyl-1H-pyrazol-5-yl)pyrazolo[1,5-a]pyrimidin-7(4H)-one] | ≤ 10 µM
15 | Cc1noc(-c2cnn3c(=O)cc(-c4ccc5c(cnn5C5COC5)c4)[nH]c23)n1 [Example 99, 3-(3-methyl-1,2,4-oxadiazol-5-yl)-5-(1-(oxetan-3-yl)-1H-indazol-5-yl)pyrazolo[1,5-a]pyrimidin-7(4H)-one] | ≤ 10 µM
16 | O=c1cc(-c2ccc(Cl)cn2)[nH]c2c(-c3ncco3)cnn12 [Example 113, 5-(5-chloropyridin-2-yl)-3-(1,3-oxazol-2-yl)-4H,7H-pyrazolo[1,5-a]pyrimidin-7-one] | > 10 µM
17 | CCn1ncc2cc(-c3cc(=O)n4ncc(-c5nc6ccccc6s5)c4[nH]3)ccc21 [Example 40, 3-(benzo[d]thiazol-2-yl)-5-(1-ethyl-1H-indazol-5-yl)pyrazolo[1,5-a]pyrimidin-7(4H)-one] | ≤ 10 µM
18 | Cc1noc2cc(-c3cc(=O)n4ncc(C(N)=O)c4[nH]3)ccc12 [Example 122, 5-(3-methylbenzo[d]isoxazol-6-yl)-7-oxo-4,7-dihydropyrazolo[1,5-a]pyrimidine-3-carboxamide] | ≤ 10 µM
19 | COc1cc(-c2cc(=O)n3ncc(-c4nccs4)c3[nH]2)ccc1Cl [Example 39, 5-(4-chloro-3-methoxyphenyl)-3-(thiazol-2-yl)-4H,7H-pyrazolo[1,5-a]pyrimidin-7-one] | ≤ 10 µM
20 | COc1nn2c(=O)cc(-c3ccc(Cl)cc3)[nH]c2c1-c1nc(C)no1 [Example 10, 5-(4-chlorophenyl)-2-methoxy-3-(3-methyl-1,2,4-oxadiazol-5-yl)-4H,7H-pyrazolo[1,5-a]pyrimidin-7-one] | ≤ 10 µM
21 | CCn1ncc2cc(-c3cc(=O)n4ncc(-c5ccn(C)n5)c4[nH]3)ccc21 [Example 32, 5-(1-ethyl-1H-indazol-5-yl)-3-(1-methyl-1H-pyrazol-3-yl)-4H,7H-pyrazolo[1,5-a]pyrimidin-7-one] | ≤ 10 µM
22 | CCc1noc2cc(-c3cc(=O)n4ncc(C(N)=O)c4[nH]3)ccc12 [Example 123, 5-(3-ethylbenzo[d]isoxazol-6-yl)-7-oxo-4,7-dihydropyrazolo[1,5-a]pyrimidine-3-carboxamide] | ≤ 10 µM
23 | Cc1noc(-c2c(O)nn3c(=O)cc(-c4ccc(Cl)cc4)[nH]c23)n1 [Example 9, 5-(4-chlorophenyl)-2-hydroxy-3-(3-methyl-1,2,4-oxadiazol-5-yl)-4H,7H-pyrazolo[1,5-a]pyrimidin-7-one] | ≤ 10 µM
24 | O=c1cc(-c2ccc(Cl)cc2)[nH]c2c(-c3ncco3)cnn12 [Example 48, 5-(4-chlorophenyl)-3-(oxazol-2-yl)pyrazolo[1,5-a]pyrimidin-7(4H)-one] | ≤ 10 µM
25 | Cc1cnc(-c2cnn3c(=O)cc(-c4ccc(Cl)cc4)[nH]c23)o1 [Example 47, 5-(4-chlorophenyl)-3-(5-methyloxazol-2-yl)pyrazolo[1,5-a]pyrimidin-7(4H)-one] | ≤ 10 µM
